The values below come from PubChem BioAssay AID1259411 (Chemical Carcinogenesis Research Information System (CCRIS), 2018).

The source made the active and inactive calls. The rule behind the calls is not given here. *1 amine or outer side, *2 acyl side, *3 side chain or, on linkers, in order; H or OH if unused. Where a SMILES comes first, the peptide text is derived from it. Bridges are numbered along the chain shown (N, C = ends). Roman numbers before positions name the chains, in order. [ ]: non-standard residue; d: D form. Actinocin(9to1) = Cc1c2oc3c(C)ccc(C(=O)[*:1])c3nc-2c(C(=O)[*:2])c(N)c1=O; NMeV = CN[C@H](C(=O)O)C(C)C; Sar = CNCC(=O)O

The data set concerns rodent carcinogenicity bioassays, tumor incidence. Put plainly: CCRIS carcinogenicity studies. In a few lines:
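NCI-built, expert-reviewed records of carcinogenicity and related test outcomes (mutagenicity, tumor promotion/inhibition) compiled from published and report sources, historical span 1985-2011, not updated.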

Regarding `Nc1ccccc1`, the carcinogen call runs as follows: (Species: MOUSE, Strain/Sex: B6C3F1/FEMALE, Route: ORAL, Dose: 0, 0.6, 1.2% OF DIET, Dose: 0, 0.6, 1.2% OF DIET) “inactive; negative”; (Species: MOUSE, Strain/Sex: B6C3F1/MALE, Route: INTRAPERITONEAL, Dose: 0, 0.15 UMOL/G ONCE IN SODIUM ACETATE BUFFER (STUDY DURATION: 10 MO)) “inactive; negative”; (Species: MOUSE, Strain/Sex: B6C3F1/MALE, Route: ORAL, Dose: 0, 0.6, 1.2% OF DIET, Dose: 0, 0.6, 1.2% OF DIET) “inactive; negative”; (Species: RAT, Strain/Sex: F344/FEMALE, Route: ORAL, Dose: 0, 0.3, 0.6% OF DIET, Dose: 0, 0.3, 0.6% OF DIET, Tumor Site: Type of Lesion: SPLEEN OR BODY CAVITIES (BOTH PLEURAL AND PERITONEAL): FIBROSARCOMA OR SARCOMA, NOS) “active; positive”; (Species: RAT, Strain/Sex: F344/FEMALE, Route: ORAL, Dose: 0, 3000, 6000 PPM IN DIET FOR 103 WK (STUDY DURATION: 108 WK), Dose: 0, 3000, 6000 PPM IN DIET FOR 103 WK (STUDY DURATION: 108 WK), Tumor Site: Type of Lesion: SPLEEN OR PERITONEUM: SARCOMA) “active; positive”; (Species: RAT, Strain/Sex: F344/MALE, Route: ORAL, Dose: 0, 0.3, 0.6% OF DIET, Dose: 0, 0.3, 0.6% OF DIET, Tumor Site: Type of Lesion: SPLEEN AND BODY CAVITIES (BOTH PLEURAL AND PERITONEAL): FIBROSARCOMA OR SARCOMA, NOS, HEMANGIOSARCOMA) “active; positive”. Under “Species: RAT, Strain/Sex: F344/MALE, Route: ORAL, Dose: 0, 3000, 6000 PPM IN DIET FOR 103 WK (STUDY DURATION: 108 WK), Dose: 0, 3000, 6000 PPM IN DIET FOR 103 WK (STUDY DURATION: 108 WK), Tumor Site: Type of Lesion: SPLEEN OR PERITONEUM: SARCOMA”, the carcinogen call is “active; positive”.

With `CCC(C)n1c(=O)[nH]c(C)c(Br)c1=O` (configuration not stated), the carcinogen call was “inactive; negative; purity 95%” (Species: Mouse, Strain/Sex: CD-1/Female (80/sex/dose), Route: Oral, Dose: 0, 250, 1250, 5000 ppm in diet for 18 mo, Dose: 0, 250, 1250, 5000 ppm in diet for 18 mo); “active; positive: purity 95%” (Species: Mouse, Strain/Sex: CD-1/Male (80/sex/dose), Route: Oral, Dose: 0, 250, 1250, 5000 ppm in diet for 18 mo, Dose: 0, 250, 1250, 5000 ppm in diet for 18 mo, Tumor Site: Type of Lesion: Liver: significant increase in combined hepatocellular adenomas and carcinomas at highest dose, liver lesions (neoplasti); “inactive; negative (mtd may have been exceeded); purity: 95-99%” (Species: Rat, Strain/Sex: Crl:CD (BR)/Female (62/sex/group), Route: Oral, Dose: 0, 50, 250, 2500 ppm in diet for 2 yr, Dose: 0, 50, 250, 2500 ppm in diet for 2 yr); “inactive; negative (mtd may have been exceeded); purity: 95-99%” (Species: Rat, Strain/Sex: Crl:CD (BR)/Male (62/sex/group), Route: Oral, Dose: 0, 50, 250, 2500 ppm in diet for 2 yr, Dose: 0, 50, 250, 2500 ppm in diet for 2 yr).

As for `CN(C)CCN(C)N=O`, the carcinogen call (Species: HAMSTER, Strain/Sex: SYRIAN/FEMALE, Route: INTRAGASTRIC, Dose: 0, 36 MG/ML CORN OIL/ETHYL ACETATE (2:1) SOLUTION ADMINISTERED AS 0.2 ML 1/WK FOR 61 WK (STUDY DURATION: 106 WK), Tumor Site: Type of Lesion: NASAL CAVITY: ADENOMA, ESOPHAGUS: CARCINOMA, PAPILLOMA) is “active; positive”; the carcinogen call (Species: HAMSTER, Strain/Sex: SYRIAN/MALE, Route: INTRAGASTRIC, Dose: 0, 36 MG/ML CORN OIL/ETHYL ACETATE (2:1) SOLUTION ADMINISTERED AS 0.2 ML 1/WK FOR 61 WK (STUDY DURATION: 106 WK), Tumor Site: Type of Lesion: NASAL CAVITY: ADENOMA, CARCINOMA, LIVER: HEPATOCELLULAR TUMOR) is “active; positive”; the carcinogen call (Species: RAT, Strain/Sex: F344/FEMALE, Route: GAVAGE, Dose: 0, 14, MG/WK FOR A TOTAL DOSE OF 2.2 MMOL (STUDY DURATION: 40 WK), Dose: 0, 14, MG/WK FOR A TOTAL DOSE OF 2.2 MMOL (STUDY DURATION: 40 WK), Tumor Site: Type of Lesion: ESOPHAGUS: TUMOR, NASAL MUCOSA: TUMOR) was “active; positive”; the carcinogen call (Species: RAT, Strain/Sex: F344/FEMALE, Route: INTRAGASTRIC, Dose: 0, 36 MG/ML CORN OIL/ETHYL ACETATE (2:1) SOLUTION ADMINISTERED AS 0.2 ML 2/WK FOR 20 WK (STUDY DURATION: 38 WK), Tumor Site: Type of Lesion: NASAL CAVITY: ADENOMA, ESOPHAGUS: CARCINOMA, PAPILLOMA) was “active; positive”; the carcinogen call (Species: RAT, Strain/Sex: F344/FEMALE, Route: INTRAVESICULAR, Dose: 0, 7 MG IN 0.2 ML ETHANOL: DEIONIZED WATER (1:3) 2/WK FOR 23 WK (TOTAL DOSE 2.5 NMOL) (STUDY DURATION: LIFESPAN), Tumor Site: Type of Lesion: ESOPHAGUS: TUMOR, NASAL MUCOSA: TUMOR) was “active; positive”; the carcinogen call (Species: RAT, Strain/Sex: F344/MALE, Route: GAVAGE, Dose: 0, 14 MG/WK FOR A TOTAL DOSE OF 2.2 MMOL (STUDY DURATION: 40 WK), Tumor Site: Type of Lesion: ESOPHAGUS: TUMOR, NASAL MUCOSA: TUMOR) was “active; positive”. For the same molecule, the carcinogen call reads like this: (Species: RAT, Strain/Sex: F344/MALE, Route: INTRAGASTRIC, Dose: 0, 36 MG/ML CORN OIL/ETHYL ACETATE (2:1) SOLUTION ADMINISTERED AS 0.2 ML 2/WK FOR 20 WK (STUDY DURATION: 38 WK), Tumor Site: Type of Lesion: NASAL CAVITY: ADENOMA, CARCINOMA, ESOPHAGUS: CARCINOMA, PAPILLOMA) “active; positive”; (Species: RAT, Strain/Sex: F344/MALE, Route: ORAL, Dose: 0, 144 MG/L DEIONIZED DRINKING WATER ADMINISTERED AS 80 ML/WK FOR 20 WK (STUDY DURATION: 38 WK), Tumor Site: Type of Lesion: NASAL CAVITY: ADENOMA, ESOPHAGUS: CARCINOMA, PAPILLOMA) “active; positive”.

`Cc1cc(O)c2c(c1O)C(=O)C13C(=C2O)C(=O)C2C(O)C1C1C(O)C3C(=O)C3=C(O)c4c(O)cc(C)c(O)c4C(=O)C321` (configuration not stated): the carcinogen call (Species: MOUSE, Route: ORAL, Tumor Site: Type of Lesion: LIVER) is “active; positive”.

On to `COc1ccc(OC)c(N=Nc2c(O)ccc3ccccc23)c1`, for which the carcinogen call (Species: MOUSE, Strain/Sex: C57 X 1F F1, Route: BLADDER IMPLANT, Dose: 0, 12.5% SUSPENSION IN PARAFFIN WAX (STUDY DURATION: 40 WK), Tumor Site: Type of Lesion: BLADDER: CARCINOMA) was “active; positive”.

As for `Cc1c2oc3c(C)ccc(C(=O)N[C@@H]4C(=O)N[C@H](C(C)C)C(=O)N5CCC[C@H]5C(=O)N(C)CC(=O)N(C)[C@@H](C(C)C)C(=O)O[C@@H]4C)c3nc-2c(C(=O)N[C@@H]2C(=O)N[C@H](C(C)C)C(=O)N3CCC[C@H]3C(=O)N(C)CC(=O)N(C)[C@@H](C(C)C)C(=O)O[C@@H]2C)c(N)c1=O` (I: T[dV]P[Sar][NMeV] / II: T[dV]P[Sar][NMeV]; ester I:1-I:C, II:1-II:C; linker I:N-II:N via Actinocin(9to1)), the carcinogen call (Species: RAT, Route: INTRAPERITONEAL, Tumor Site: Type of Lesion: PERITONEAL CAVITY) is “active; positive”.
